Experimental data taken from ChEMBL document CHEMBL4177690, “(E)-3-(3,4,5-Trimethoxyphenyl)-1-(pyridin-4-yl)prop-2-en-1-one, a heterocyclic chalcone is a potent and selective CYP1A1 inhibitor and cancer chemopreventive agent” (Bioorg Med Chem Lett, 2017).
pIC50: −log10 of the molar value.

Columns and labels:
Cytochrome P450 2C9 [1] = target: T1, Cytochrome P450 2C9 (Homo sapiens, UniProt P11712); assay: Inhibition of recombinant human CYP2C9 expressed in HEK293 cells using 3-cyano-7-ethoxycoumarin as substrate pretreated for 30 mins followed by substrate addition measured for 60 mins by fluorescence assay; format: ADME
Cytochrome P450 1A1 [2] = target: T2, Cytochrome P450 1A1 (Homo sapiens, UniProt P04798); assay: Inhibition of human CYP1A1 expressed in yeast microsomal membranes using 7-ethoxyresorufin as substrate measured after 10 mins by fluorescence assay; format: cell membranes
T2 sequence (P04798 whole entry): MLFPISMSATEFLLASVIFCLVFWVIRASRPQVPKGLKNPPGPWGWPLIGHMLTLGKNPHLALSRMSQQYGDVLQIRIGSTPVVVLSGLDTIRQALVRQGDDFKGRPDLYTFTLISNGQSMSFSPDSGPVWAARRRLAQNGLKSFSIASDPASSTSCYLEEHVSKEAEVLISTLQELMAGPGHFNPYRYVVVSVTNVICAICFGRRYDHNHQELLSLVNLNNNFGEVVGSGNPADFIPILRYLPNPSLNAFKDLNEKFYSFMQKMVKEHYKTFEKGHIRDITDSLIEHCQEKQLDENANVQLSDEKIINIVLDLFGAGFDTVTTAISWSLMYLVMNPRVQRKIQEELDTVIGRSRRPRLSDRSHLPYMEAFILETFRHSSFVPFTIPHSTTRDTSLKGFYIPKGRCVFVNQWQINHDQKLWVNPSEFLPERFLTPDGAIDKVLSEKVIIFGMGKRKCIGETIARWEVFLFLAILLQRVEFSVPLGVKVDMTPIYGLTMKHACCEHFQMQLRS

Cytochrome P450 3A4 [3] = target: T3, Cytochrome P450 3A4 (Homo sapiens, UniProt P08684); assay: Inhibition of recombinant human CYP3A4 expressed in HEK293 cells using dibenzylfluorescein as substrate pretreated for 30 mins followed by substrate addition measured for 60 mins by fluorescence assay; format: ADME
Homo sapiens [4] = organism: Homo sapiens; assay: Selectivity ratio of IC50 for recombinant human CYP1B1 expressed in HEK293 cells to IC50 for recombinant human CYP1A1 expressed in HEK293 cells; format: cell-based
Cytochrome P450 1A2 [5] = target: T4, Cytochrome P450 1A2 (Homo sapiens, UniProt P05177); assay: Inhibition of recombinant human CYP1A2 expressed in HEK293 cells using 3-cyano-7-ethoxycoumarin as substrate pretreated for 30 mins followed by substrate addition measured for 60 mins by fluorescence assay; format: ADME
T4 sequence (P05177 whole entry): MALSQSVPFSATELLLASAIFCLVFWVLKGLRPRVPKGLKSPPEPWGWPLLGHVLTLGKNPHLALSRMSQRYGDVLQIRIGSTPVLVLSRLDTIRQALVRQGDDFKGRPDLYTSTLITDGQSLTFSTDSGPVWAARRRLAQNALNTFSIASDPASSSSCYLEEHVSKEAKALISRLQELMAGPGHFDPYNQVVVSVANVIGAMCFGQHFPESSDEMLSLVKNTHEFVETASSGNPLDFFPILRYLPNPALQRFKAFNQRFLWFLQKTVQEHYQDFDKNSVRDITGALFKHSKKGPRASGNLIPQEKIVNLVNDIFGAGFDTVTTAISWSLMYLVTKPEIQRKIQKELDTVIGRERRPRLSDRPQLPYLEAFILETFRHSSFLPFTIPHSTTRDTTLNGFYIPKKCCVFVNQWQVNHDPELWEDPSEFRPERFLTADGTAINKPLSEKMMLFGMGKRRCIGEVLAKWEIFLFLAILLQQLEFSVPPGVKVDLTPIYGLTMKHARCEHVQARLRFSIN

Cytochrome P450 2C9 [6] = target: T1, Cytochrome P450 2C9; assay: Inhibition of human CYP2C9 expressed in yeast microsomal membranes using 3-cyano-7-ethoxycoumarin as substrate measured after 10 mins by fluorescence assay; format: ADME, cell membranes, Microsomal Membrane
Cytochrome P450 1A2 [7] = target: T4, Cytochrome P450 1A2; assay: Inhibition of human CYP1A2 expressed in yeast microsomal membranes using 3-cyano-7-ethoxycoumarin as substrate measured after 10 mins by fluorescence assay; format: ADME, cell membranes, Microsomal Membrane
Cytochrome P450 1A1 [8] = target: T2, Cytochrome P450 1A1; assay: Inhibition of recombinant human CYP1A1 expressed in HEK293 cells using 7-ethoxyresorufin as substrate pretreated for 30 mins followed by substrate addition measured for 60 mins by fluorescence assay; format: cell-based
Cytochrome P450 3A4 [9] = target: T3, Cytochrome P450 3A4; assay: Inhibition of human CYP3A4 expressed in yeast microsomal membranes using dibenzylfluorescein as substrate measured after 10 mins by fluorescence assay; format: ADME, cell membranes, Microsomal Membrane
Cytochrome P450 1B1 [10] = target: T5, Cytochrome P450 1B1 (Homo sapiens, UniProt Q16678); assay: Inhibition of recombinant human CYP1B1 expressed in HEK293 cells using 7-ethoxyresorufin as substrate pretreated for 30 mins followed by substrate addition measured for 60 mins by fluorescence assay; format: cell-based
T5 sequence (Q16678 whole entry): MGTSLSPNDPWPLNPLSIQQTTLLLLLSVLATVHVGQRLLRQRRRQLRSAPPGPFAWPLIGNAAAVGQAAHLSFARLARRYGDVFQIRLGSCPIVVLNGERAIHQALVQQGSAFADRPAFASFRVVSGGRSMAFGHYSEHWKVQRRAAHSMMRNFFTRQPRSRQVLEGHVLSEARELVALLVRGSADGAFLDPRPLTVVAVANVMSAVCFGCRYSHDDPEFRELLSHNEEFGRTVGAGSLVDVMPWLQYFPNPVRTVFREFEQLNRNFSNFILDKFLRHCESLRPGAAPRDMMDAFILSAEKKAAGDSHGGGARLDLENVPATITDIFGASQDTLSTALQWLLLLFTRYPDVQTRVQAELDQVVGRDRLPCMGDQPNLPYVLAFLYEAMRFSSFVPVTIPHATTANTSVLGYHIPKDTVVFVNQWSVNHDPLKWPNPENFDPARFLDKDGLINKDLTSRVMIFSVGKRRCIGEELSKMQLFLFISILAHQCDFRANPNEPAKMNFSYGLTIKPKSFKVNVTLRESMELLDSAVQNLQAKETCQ

Homo sapiens [11] = organism: Homo sapiens; assay: Selectivity ratio of IC50 for recombinant human CYP1A2 expressed in HEK293 cells to IC50 for recombinant human CYP1A1 expressed in HEK293 cells; format: cell-based
Cytochrome P450 1B1 [12] = target: T5, Cytochrome P450 1B1; assay: Inhibition of human CYP1B1 expressed in yeast microsomal membranes using 7-ethoxyresorufin as substrate measured after 10 mins by fluorescence assay; format: cell membranes
Cytochrome P450 2D6 [13] = target: T6, Cytochrome P450 2D6 (Homo sapiens, UniProt P10635); assay: Inhibition of human CYP2D6 expressed in yeast microsomal membranes using 7-ethoxy-methyloxy-3-cyanocoumarin as substrate measured after 10 mins by fluorescence assay; format: ADME, cell membranes, Microsomal Membrane
Cytochrome P450 2C19 [14] = target: T7, Cytochrome P450 2C19 (Homo sapiens, UniProt P33261); assay: Inhibition of human CYP2C19 expressed in yeast microsomal membranes using 3-cyano-7-ethoxycoumarin as substrate measured after 10 mins by fluorescence assay; format: ADME, cell membranes, Microsomal Membrane
Cytochrome P450 2C19 [15] = target: T7, Cytochrome P450 2C19; assay: Inhibition of recombinant human CYP2C19 expressed in HEK293 cells using 3-cyano-7-ethoxycoumarin as substrate pretreated for 30 mins followed by substrate addition measured for 60 mins by fluorescence assay; format: ADME
Cytochrome P450 2D6 [16] = target: T6, Cytochrome P450 2D6; assay: Inhibition of recombinant human CYP2D6 expressed in HEK293 cells using 7-ethoxy-methyloxy-3-cyanocoumarin as substrate pretreated for 30 mins followed by substrate addition measured for 60 mins by fluorescence assay; format: ADME, cell-based

T3 sequence (P08684 whole entry): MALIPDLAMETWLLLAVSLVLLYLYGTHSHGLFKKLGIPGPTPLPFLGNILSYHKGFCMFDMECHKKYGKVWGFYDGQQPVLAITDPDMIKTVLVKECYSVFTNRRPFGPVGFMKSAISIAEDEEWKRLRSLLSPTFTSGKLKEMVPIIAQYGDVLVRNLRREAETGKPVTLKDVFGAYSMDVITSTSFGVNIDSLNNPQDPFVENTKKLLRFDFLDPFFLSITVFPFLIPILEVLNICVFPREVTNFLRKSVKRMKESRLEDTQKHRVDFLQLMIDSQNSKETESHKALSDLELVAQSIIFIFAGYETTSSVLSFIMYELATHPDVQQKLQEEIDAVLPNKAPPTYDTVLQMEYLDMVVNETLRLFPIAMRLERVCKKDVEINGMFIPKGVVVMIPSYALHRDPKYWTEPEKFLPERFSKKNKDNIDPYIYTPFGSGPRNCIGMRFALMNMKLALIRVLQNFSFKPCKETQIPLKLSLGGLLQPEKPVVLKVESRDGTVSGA
T1 sequence (P11712 whole entry): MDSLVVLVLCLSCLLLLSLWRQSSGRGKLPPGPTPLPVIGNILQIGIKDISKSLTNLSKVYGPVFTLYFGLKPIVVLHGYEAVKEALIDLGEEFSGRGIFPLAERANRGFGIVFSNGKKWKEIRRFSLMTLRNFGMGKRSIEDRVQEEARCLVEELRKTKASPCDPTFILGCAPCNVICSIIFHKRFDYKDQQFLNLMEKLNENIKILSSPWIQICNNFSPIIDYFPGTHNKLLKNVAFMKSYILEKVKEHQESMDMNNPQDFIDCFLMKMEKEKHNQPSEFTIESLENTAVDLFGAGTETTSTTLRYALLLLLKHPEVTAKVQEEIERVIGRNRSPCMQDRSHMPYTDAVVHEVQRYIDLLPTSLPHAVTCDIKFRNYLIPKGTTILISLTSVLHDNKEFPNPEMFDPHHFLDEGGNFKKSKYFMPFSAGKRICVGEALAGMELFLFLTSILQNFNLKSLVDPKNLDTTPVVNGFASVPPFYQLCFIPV
T6 sequence (P10635 whole entry): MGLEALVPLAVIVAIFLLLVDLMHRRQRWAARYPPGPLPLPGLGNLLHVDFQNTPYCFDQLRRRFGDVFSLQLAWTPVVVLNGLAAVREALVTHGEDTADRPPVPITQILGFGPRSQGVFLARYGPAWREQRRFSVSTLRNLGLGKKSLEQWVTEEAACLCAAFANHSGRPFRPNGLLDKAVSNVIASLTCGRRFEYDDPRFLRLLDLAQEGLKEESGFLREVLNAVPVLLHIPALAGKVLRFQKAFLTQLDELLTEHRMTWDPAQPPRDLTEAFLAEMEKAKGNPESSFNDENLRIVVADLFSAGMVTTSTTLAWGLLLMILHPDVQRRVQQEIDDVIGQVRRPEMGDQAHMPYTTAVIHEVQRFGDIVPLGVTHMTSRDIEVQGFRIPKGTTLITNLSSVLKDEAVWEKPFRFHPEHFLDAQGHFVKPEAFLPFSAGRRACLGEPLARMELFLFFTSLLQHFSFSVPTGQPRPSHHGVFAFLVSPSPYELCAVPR
T7 sequence (P33261 whole entry): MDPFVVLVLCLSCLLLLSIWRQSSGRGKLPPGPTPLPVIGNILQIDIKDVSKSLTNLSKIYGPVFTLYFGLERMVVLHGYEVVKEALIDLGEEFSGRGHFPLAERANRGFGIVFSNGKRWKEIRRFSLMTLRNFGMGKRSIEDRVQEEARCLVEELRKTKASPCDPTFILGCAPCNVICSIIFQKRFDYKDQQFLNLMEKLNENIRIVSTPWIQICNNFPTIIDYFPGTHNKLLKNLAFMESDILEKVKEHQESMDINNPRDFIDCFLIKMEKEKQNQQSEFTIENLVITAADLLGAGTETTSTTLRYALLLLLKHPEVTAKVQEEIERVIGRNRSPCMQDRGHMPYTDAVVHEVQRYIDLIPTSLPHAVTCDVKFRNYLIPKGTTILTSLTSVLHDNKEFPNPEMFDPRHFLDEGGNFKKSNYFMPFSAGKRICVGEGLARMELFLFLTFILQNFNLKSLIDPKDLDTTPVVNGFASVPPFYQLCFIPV

SMILES | pIC50 (Cytochrome P450 2C9 [1]) | pIC50 (Cytochrome P450 1A1 [2]) | pIC50 (Cytochrome P450 3A4 [3]) | Ratio IC50 (Homo sapiens [4]) | pIC50 (Cytochrome P450 1A2 [5]) | pIC50 (Cytochrome P450 2C9 [6]) | pIC50 (Cytochrome P450 1A2 [7]) | pIC50 (Cytochrome P450 1A1 [8]) | pIC50 (Cytochrome P450 3A4 [9]) | pIC50 (Cytochrome P450 1B1 [10]) | Ratio IC50 (Homo sapiens [11]) | pIC50 (Cytochrome P450 1B1 [12]) | pIC50 (Cytochrome P450 2D6 [13]) | pIC50 (Cytochrome P450 2C19 [14]) | pIC50 (Cytochrome P450 2C19 [15]) | pIC50 (Cytochrome P450 2D6 [16])
CCOc1cc(/C=C/C(=O)c2ccncc2)cc(OCC)c1OCC | < 5.00 | 7.04 | < 5.00 | < 10 | 5.96 | < 4.70 | 5.92 | 7.04 | < 4.70 | 5.00 | < 10 | 5.06 | 4.85 | < 4.70 | < 5.00 | < 5.00
COc1ccc(/C=C/C(=O)c2ccncc2)cc1OC | < 5.00 | 6.42 | < 5.00 | – | 6.92 | < 4.70 | 6.92 | 6.38 | < 4.70 | 6.64 | – | 6.77 | 5.10 | < 4.70 | < 5.00 | < 5.00
CCOc1c(OC)cc(/C=C/C(=O)c2ccncc2)cc1OC | < 5.00 | 6.64 | < 5.00 | – | 5.66 | < 4.70 | 5.59 | 6.55 | < 4.70 | 6.21 | – | 6.16 | 4.92 | < 4.70 | < 5.00 | < 5.00
COc1cccc(/C=C/C(=O)c2ccncc2)c1 | < 5.00 | 6.23 | < 5.00 | – | 7.70 | < 4.70 | 7.70 | 6.21 | < 4.70 | 7.22 | – | 7.27 | 4.92 | < 4.70 | < 5.00 | < 5.00
COc1ccccc1/C=C/C(=O)c1ccncc1 | < 5.00 | 6.24 | < 5.00 | – | 7.49 | < 4.70 | 7.49 | 6.21 | < 4.70 | 7.22 | – | 7.32 | 4.96 | < 4.70 | < 5.00 | < 5.00
O=C(/C=C/c1cccc2ccccc12)c1ccncc1 | < 5.00 | 6.29 | < 5.00 | – | 7.55 | < 4.70 | 7.46 | 6.26 | < 4.70 | 6.12 | – | 6.19 | 4.74 | < 4.70 | < 5.00 | < 5.00
COc1cc(/C=C/C(=O)c2ccncc2)cc(OC)c1 | < 5.00 | 6.74 | < 5.00 | – | 7.55 | < 4.70 | 7.55 | 6.66 | < 4.70 | 7.51 | – | 7.39 | 4.80 | < 4.70 | < 5.00 | < 5.00
COc1ccc(/C=C/C(=O)c2ccncc2)cc1 | < 5.00 | 5.20 | < 5.00 | – | 4.92 | < 4.70 | 4.92 | 5.18 | < 4.70 | 5.07 | – | 5.15 | 4.82 | < 4.70 | < 5.00 | < 5.00
O=C(/C=C/c1ccc2c(c1)OCO2)c1ccncc1 | < 5.00 | 5.95 | < 5.00 | – | 5.82 | < 4.70 | 5.82 | 5.95 | < 4.70 | 5.45 | – | 5.68 | 4.92 | < 4.70 | < 5.00 | < 5.00
CCOc1cc(/C=C/C(=O)c2ccncc2)cc(OC)c1OC | < 5.00 | 7.20 | < 5.00 | < 10 | 5.82 | < 4.70 | 5.88 | 7.20 | < 4.70 | 5.32 | < 10 | 5.42 | 4.77 | < 4.70 | < 5.00 | < 5.00
